Data as given in patent publication US20240043448A1, “Small Molecule Inhibitors of KRAS G12C Mutant” (Merck Sharp & Dohme LLC, priority 2019, published 2024).
Where two headings read alike, the source gives them in different places.

Assays:
[1] = molecular target: Biotinylated KRAS G12C protein (Homo sapiens (Human), UniProt P01116, C118S/C51S/C80L/G12C); experiment: SOS-catalyzed nucleotide exchange assay (TR-FRET); assay type: biochemical; conditions: in vitro apparent potency; preincubation time of 60 minutes prior to addition of SOS
Biotinylated KRAS G12C protein, sequence (P01116 other isoform, or with tags, fused parts or gaps, stated change not applied): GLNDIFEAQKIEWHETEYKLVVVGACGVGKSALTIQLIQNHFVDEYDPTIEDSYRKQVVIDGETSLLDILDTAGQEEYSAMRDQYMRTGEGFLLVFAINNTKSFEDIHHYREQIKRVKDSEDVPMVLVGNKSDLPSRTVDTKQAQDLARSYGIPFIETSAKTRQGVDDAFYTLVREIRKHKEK
Procedure: The SOS-catalyzed nucleotide exchange assay utilizes a preformed complex of recombinant biotinylated KRAS protein containing G12C/C51S/C80L/C118S mutations (183 amino acids; biotin on K10; leader sequence which is an AviTag; referred to as SEQ ID NO: 1 or “Biotinylated KRAS G12C protein” hereafter), Bodipy-GDP, and Terbium-streptavidin. Compounds are added to this complex and then after incubation for 60 minutes, the mixture is treated with recombinant SOS protein and unlabeled GTP. Small molecule inhibitors stabilize the Bodipy-GDP complex whereas the untreated protein rapidly exchanges Bodipy-GDP for unlabeled GTP resulting in reduced TR-FRET signal.
Biotinylated KRAS G12C protein (SEQ ID NO: 1) is diluted to 2 μM in an EDTA buffer (20 mM HEPES, 150 mM sodium chloride, 10 mM EDTA, and 0.01% Tween) and incubated at room temperature for one hour. This mixture is then further diluted to 90 nM in an assay buffer (20 mM HEPES, 150 mM sodium chloride, 10 mM magnesium chloride, and 0.005% Tween) containing 15 nM of Terbium-Streptavidin (Invitrogen, catalog #PV3577) and 900 nM of Bodipy-GDP and incubated at room temperature for six hours. This solution is referred to as Biotinylated KRAS G12C mixture.
Each test compound (10 mM stock in DMSO) is diluted in DMSO to make a 10-point, 3-fold dilution series in a 384-well low dead volume microplate (Labcyte, catalog #LP-0200). Once titrations are made, 10 nL of the diluted compounds is acoustically dispensed into a 384-well plate (Corning, catalog #3820) using an Echo 550 (Labcyte).
Each well of the plate receives 3 μL Biotinylated KRAS G12C mixture that had been incubating for six hours and 3 μL of assay buffer using a BioRAPTR (Beckman Coulter) and is incubated at room temperature for 60 minutes. Each well then receives 3 μL of 240 nM recombinant human SOS protein and 9 mM GTP (Sigma, G8877) in assay buffer and is incubated at room temperature for 60 minutes.
The time-resolved fluorescence resonance energy transfer signal of the plate is measured on an Envision (PerkinElmer) plate reader: Excitation filter=340 nm; emission1=495 nm; emission2=520 nm; dichroic mirror=D400/D505; delay time=100 μs. The signal of each well is determined as the ratio of the emission at 520 nm to that at 495 nm. Percent effect of each well is determined after normalization to control wells containing DMSO (no effect) or a saturating concentration of inhibitor (max effect). The apparent effect as a function of compound concentration is fit to a four parameter logistic equation.

[2] = tested on: phospho-ERK; experiment: Cellular phospho-ERK assay; assay type: cell-based; conditions: NCI-H358 cells, 2 hour incubation, ratio of p-Erk vs total Erk, read-out: IC50 (nM) pERK (Cell)
Procedure: NCI-H358 cells (ATCC® CRL-5807™) were cultured in T150 flask in growth medium (RPMI medium 1640-GlutaMAX™-I (ThermoFisher Scientific 61870) containing 10% fetal bovine serum (ThermoFisher Scientific 10091148)). The cells were harvested in growth medium after TrypLE (ThermoFisher scientific 12604021) digestion and were seeded in a 384-well collagen coated cell culture plate (Corning 356702) at a density of 15,000 cells/well, and incubated at 37° C., 5% CO2 overnight. The compound dose-response titrations were prepared and appropriate amounts of compounds were dispensed in a 384-well intermediate plate using an Echo 550 liquid handler. RPMI medium 1640-GlutaMAX™-I were added to the intermediate plate and transferred to 384-well cell culture plate, which was incubated at 37° C., 5% CO2 for 2 hours. After removal of medium from the plate, cells were lysed in lysis buffer from Alpha SureFire® Ultra™ Multiplex p-Erk and total Erk assay kit (PerkinElmer MPSU-PTERK) containing Halt™ Protease and Phosphotase inhibitor cocktail (ThermoFisher Scientific 78446) at room temperature with constant shaking at 300 rpm for 30 minutes. The cell lysates were then transferred to OptiPlate-384 plate (PerkinElmer 6005620) and the phosphorylation of Erk and total Erk levels were detected by Alpha SureFire Ultra Multiplex p-Erk kit (PerkinElmer MPSU-PTERK) following the manufacturer's protocol. Assay plates were read on an EnVision Multimode Plate Reader (PerkinElmer), and the ratio of p-Erk vs total Erk in each well was used as the final readout. Dose response curves were analyzed using a 4-parameter logistic model to calculate IC50 values using spotfire software.

Structure (SMILES)	IC50 [1] [nM]	IC50 [2] [nM]	IC50 ([2]; Homo sapiens, NCI-H358, 2 h) [nM]
C=CC(=O)N1CCN(c2nc(=O)n3c4nc(c(Cl)cc24)-c2c(F)cccc2OCCc2ccccc2-3)[C@@H](C)C1 [Example 9, 19-chloro-16-fluoro-2-[(2S)-2-methyl-4-(prop-2-enoyl)piperazin-1-yl]-10,11-dihydro-4H-1,17-ethenodibenzo[b,h]pyrimido[6,1-f][1,5,7]oxadiazacycloundecin-4-one]	1410	3830	
C=CC(=O)N1C[C@H](C)N(c2nc(=O)n3c4nc(c(F)cc24)-c2c(ccc(F)c2F)OCC2(CCc4ccnc(C(C)C)c4-3)CC2)C[C@H]1C [Example 62, 2′-[(2S,5R)-2,5-dimethyl-4-(prop-2-enoyl)piperazin-1-yl]-17′,18′,21′-trifluoro-6′-(propan-2-yl)-10′,11′-dihydro-4′H,13′H-spiro[cyclopropane-1,12′-[14]oxa [3,5,7,20]tetraaza[1,19] (ethanediylidene)pyrido[4,3-f]pyrimido[1,6-h][1,8,10]benzoxadiazacyclotri-decin]-4′-one]	3.5		54
C=CC(=O)N1CCN(c2nc(=O)n3c4nc(c(F)cc24)-c2c(F)cccc2OCCCc2ccnc(C(C)C)c2-3)C[C@@H]1CC [Example 103, 2-[(3S)-3-ethyl-4-(prop-2-enoyl)piperazin-1-yl]-17,20-difluoro-6-(propan-2-yl)-11,12-dihydro-4H,10H-1,18-ethenopyrido[4,3-e]pyrimido[1,6-g][1,7,9] benzoxadiazacyclododecin-4-one]	107		847
C=CC(=O)N1C[C@H](C)N(c2nc(=O)n3c4nc(c(Cl)cc24)-c2cc(F)cc(F)c2OCCCc2ccnc(C(C)C)c2-3)C[C@H]1C [Example 82, 20-chloro-2-[(2S,5R)-2,5-dimethyl-4-(prop-2-enoyl)piperazin-1-yl]-14,16-difluoro-6-(propan-2-yl)-11,12-dihydro-4H,10H-1,18-ethenopyrido[4,3-e]pyrimido[1,6-g][1,7,9]benzoxadiazacyclododecin-4-one]	5.9		36
C=CC(=O)N1CCN(c2nc(=O)n3c4nc(c(F)cc24)-c2c(F)cccc2CCCOc2ccnc(C(C)C)c2-3)[C@@H](C)C1 (single isomer, unassigned) [Example 20b]	1380	4760	
C=CC(=O)N1CC(C)N(c2nc(=O)n3c4nc(c(F)cc24)-c2c(F)ccc(F)c2OCC(F)(F)CCc2ccnc(C(C)C)c2-3)CC1C [Example 55, (5aRa,18aRa)-2-[(2S,5R)-2,5-dimethyl-4-(prop-2-enoyl)piperazin-1-yl]-12,12,15,18,21-pentafluoro-6-(propan-2-yl)-10,11,12,13-tetrahydro-4H-1,19-(ethanediylidene)pyrido[4,3-f]pyrimido[1,6-h][1,8,10] benzoxadiazacyclotri-decin-4-one]	2.7		29
C=CC(=O)N1CCN(c2nc(=O)n3c4nc(c(F)cc24)-c2c(F)ccc(F)c2OCCCCc2ccnc(C(C)C)c2-3)[C@@H](C)C1 [Example 79, 15,18,21-trifluoro-2-[(2S)-2-methyl-4-(prop-2-enoyl)piperazin-1-yl]-6-(propan-2-yl)-10,11,12,13-tetrahydro-4H-1,19-(ethanediylidene)pyrido[4,3-f]pyrimido[1,6-h][1,8,10]benzoxadiazacyclotridecin-4-one]	2.6		7
C=CC(=O)N1C[C@H](C)N(c2nc(=O)n3c4nc(c(C)cc24)-c2c(F)ccc(F)c2OCCCc2ccnc(C(C)C)c2-3)C[C@H]1C (single isomer, unassigned) [Example 120]	4.3	11	
C=CC(=O)N1CC(C)N(c2nc(=O)n3c4nc(c(C)cc24)-c2c(F)ccc(F)c2OCCOc2ccnc(C(C)C)c2-3)CC1C [Example 110, 2-[(2S,5R)-2,5-dimethyl-4-(prop-2-enoyl)piperazin-1-yl]-14,17-difluoro-20-methyl-6-(propan-2-yl)-11,12-dihydro-4H-1,18-ethenopyrido[4,3-e]pyrimido[1,6-g][1,4,7,9]benzodioxadiazacyclododecin-4-one]	4.5	23	
C=CC(=O)N1C[C@H](C)N(c2nc(=O)n3c4nc(c(F)cc24)-c2c(F)cccc2OCCCc2ccnc(C(C)C)c2-3)C[C@H]1C [Example 75, 2-[(2S,5R)-2,5-dimethyl-4-(prop-2-enoyl)piperazin-1-yl]-17,20-difluoro-6-(propan-2-yl)-11,12-dihydro-4H,10H-1,18-ethenopyrido[4,3-e]pyrimido[1,6-g][1,7,9]benzoxadiazacyclododecin-4-one]	1.7		8.8
C=CC(=O)N1CC2CCC1CN2c1nc(=O)n2c3nc(c(F)cc13)-c1c(F)cccc1OCCCc1ccnc(C(C)C)c1-2 (centres unmarked) [Example 106, 17,20-difluoro-4-oxo-6-(propan-2-yl)-2-[5-(prop-2-enoyl)-2,5-diazabicyclo[2.2.2]octan-2-yl]-11,12-dihydro-4H,10H-1,18-ethenopyrido[4,3-e]pyrimido[1,6-g][1,7,9] benzoxadiazacyclododecin-4-one]	2550	5620	

Results, then the compound that gave them:

IC50 [1] [nM]	IC50 [2] [nM]	IC50 ([2]; Homo sapiens, NCI-H358, 2 h) [nM]	Structure (SMILES)
2680		13900	C=CC(=O)N1CCN(c2nc(=O)n3c4nc(c(F)cc24)-c2cccnc2OCCCOc2ccnc(C(C)C)c2-3)[C@@H](C)C1 (single isomer, unassigned) [Example 2a]
4420	19100		C=CC(=O)N1CCN(c2nc(=O)n3c4nc(c(F)cc24)-c2cccc4cnn(c24)CCCOc2ccnc(C(C)C)c2-3)[C@@H](C)C1 [Example 3a, 22-fluoro-2-[(2S)-2-methyl-4-(prop-2-enoyl)piperazin-1-yl]-6-(propan-2-yl)-12,13-dihydro-4H,11H-1,20-ethenopyrido[4′,3′:2,3]pyrimido[1′,6′:4,5][1,4,6,10]oxatriazacyclotridecino[8,9,10-hi]indazol-4-one]
54	1220		C=CC(=O)N1CCN(c2nc(=O)n3c4nc(c(F)cc24)-c2c(F)cccc2CC[C@@H](O)Cc2ccnc(C(C)C)c2-3)[C@@H](C)C1 [Example 118-2, 17,20-difluoro-11-hydroxy-2-[(2S)-2-methyl-4-(prop-2-enoyl)piperazin-1-yl]-6-(propan-2-yl)-10,11,12,13-tetrahydro-4H-1,18-ethenopyrido[3,4-e]pyrimido[6,1-c][2,4]benzodiazacyclododecin-4-one]
4520	> 30000		C=CC(=O)N1CCN(c2nc(=O)n3c4nc(c(F)cc24)-c2c(F)cccc2C(=O)NCCCc2ccnc(C(C)C)c2-3)[C@H](C)C1 [Example 19b, 18,21-difluoro-2-[(2S)-2-methyl-4-(prop-2-enoyl)piperazin-1-yl]-6-(propan-2-yl)-10,11,12,13-tetrahydro-1,19-ethenopyrido[3,4-e]pyrimido[6,1-c][2,4,10]benzotriazacyclotridecine-4,14-dione]
6.5		11	C=CC(=O)N1C[C@H](C)N(c2nc(=O)n3c4nc(c(F)cc24)-c2c(F)cccc2OCCOc2ccnc(C(C)C)c2-3)C[C@H]1C (single isomer, unassigned) [Example 15a]
